Measurements from patent US8895746B2 (University of Central Florida Research Foundation, Inc., priority 2009, dated 2014).
Where two headings read alike, the source gives them in different places. One block for each compound: values may come before it. Square brackets hold non-standard residues; d marks the D form. Ends that are not written are not given here. Peptide text beside a SMILES is read from it. pY = N[C@@H](Cc1ccc(OP(=O)(O)O)cc1)C(=O)O

Legend:
Stat3 [1] = molecular target: T1, Stat3 (Mus musculus, UniProt P42227); test: Fluorescence Polarization assay, Stat3 binding to 5-carboxyfluorescein-GpYLPQTV-NH2 probe; set-up: Coding regions for the murine Stat3 protein; made in house; host or cells: E. coli BL21(DE3); species or system murine
T1 sequence (P42227 whole entry, the tested form may be a part): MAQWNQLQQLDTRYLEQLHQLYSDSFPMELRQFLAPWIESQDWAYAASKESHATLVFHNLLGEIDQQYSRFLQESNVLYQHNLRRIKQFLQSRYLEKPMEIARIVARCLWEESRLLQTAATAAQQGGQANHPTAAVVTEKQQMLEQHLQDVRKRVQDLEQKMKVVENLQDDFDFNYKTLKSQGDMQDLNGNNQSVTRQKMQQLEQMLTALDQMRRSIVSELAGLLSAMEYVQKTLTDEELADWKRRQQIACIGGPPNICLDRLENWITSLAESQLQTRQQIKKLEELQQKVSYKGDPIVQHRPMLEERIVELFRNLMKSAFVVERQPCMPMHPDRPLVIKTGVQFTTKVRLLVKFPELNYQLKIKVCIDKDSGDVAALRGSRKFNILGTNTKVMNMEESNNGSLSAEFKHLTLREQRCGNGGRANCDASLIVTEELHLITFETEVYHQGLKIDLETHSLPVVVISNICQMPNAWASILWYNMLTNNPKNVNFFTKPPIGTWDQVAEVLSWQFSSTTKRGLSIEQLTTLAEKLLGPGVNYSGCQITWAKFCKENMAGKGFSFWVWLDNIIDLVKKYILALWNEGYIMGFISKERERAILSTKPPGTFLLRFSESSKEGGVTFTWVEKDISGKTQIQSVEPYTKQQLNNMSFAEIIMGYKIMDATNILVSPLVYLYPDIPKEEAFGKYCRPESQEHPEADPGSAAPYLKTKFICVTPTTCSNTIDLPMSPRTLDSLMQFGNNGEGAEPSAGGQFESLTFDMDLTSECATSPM
Experimental: (§1) Coding regions for the murine Stat3 protein and Stat3 SH2 domain were amplified by PCR and cloned into vectors pET-44 Ek/LIC (Novagen) and pET SUMO (Invitrogen), respectively.
Fluorescence Polarization (FP) Assay was conducted as previously reported (23), with some modification using the phospho-peptide, 5-carboxyfluorescein-GpYLPQTV-NH2 (phosphorylated SEQ ID NO:7) (where pY represents phospho-Tyr) as probe and Stat3. The FP assay was used to evaluate the binding of agents to Stat3 and to determine the ability to disrupt the Stat3:pTyr peptide interaction. A fixed concentration of the fluorescently-labeled peptide probe (10 nM) was incubated with increasing concentration of the Stat3 protein for 30 min at room temperature in the buffer, 50 mM NaCI, 10 mM HEPES, 1 mM EDTA, 0.1% Nonidet P-40, and the fluorescent polarization measurements were determined using the POLARstar Omega (BMG LABTECH, Durham, N.C.), with the set gain adjustment at 35 mP. The Z′ value was derived per the equation Z′=1−(3 SDbound+3 SD free)/(mPbound−mPfree), where SD is the standard deviation and mP is the average of fluorescence polarization. In the bound state, 10 nM 5-carboxyfluorescein-GpYLPQTV-NH2 (phosphorylated SEQ ID NO:7) was incubated with 150 nM purified Stat3 protein, while the free (unbound) state was the same mixture, but incubated with an additional 10 IJM unlabeled Ac-GpYLPQTV-NH2 (phosphorylated SEQ ID NO:7). For evaluating agents, Stat3 protein (150 nM) was incubated with serial concentrations of S31-201.1066 at 30° C. for 60 min in the indicated assay buffer conditions. Prior to the addition of the fluorescence probe, the protein:S31-201.1066 mixtures were allowed to equilibrate at room temperature for 15 min. Probe was added at a final concentration of 10 nM and incubated for 30 min at room temperature following which the FP measurements were taken using the POLARstar Omega, with the set gain adjustment at 35 mP.
The FP assay was used to further test the computational modeling prediction of the ability of S31-201.1066 to disrupt Stat3 interaction with its cognate pTyr peptide.

His-tagged Stat3 = molecular target: T2, His-tagged Stat3 (Mus musculus, UniProt P42227); test: Surface Plasmon Resonance analysis of binding to immobilized His-tagged Stat3; set-up: species or system murine
T2 construct: Coding regions for the murine Stat3 protein; made in house; host or cells: E. coli BL21(DE3)
T2 sequence (P42227 whole entry): as the sequence (P42227 whole entry, the tested form may be a part) above
Description: as §1
Clones were sequenced to verify the correct sequences and orientation. His-tagged recombinant proteins were expressed in BL21(DE3) cells, and purified on Ni-ion sepharose column.
SensiQ and its analysis software Qdat (ICX Technologies, Oklahoma City, Okla.) were used to analyze the interaction between agents and the Stat3 protein and to determine the binding affinity. Purified Stat3 was immobilized on a HisCap Sensor Chip by injecting 50 µg/ml of Stat3 onto the chip. […] The association and dissociation rate constants were calculated using the Qdat software. The ratio of the association and dissociation rate constants was determined as the affinity (KD).
To provide definitive evidence of direct binding to Stat3, biophysical studies were performed. H1s-tagged Stat3 protein (or SH2 domain; 50 ng) was immobilized on a Ni-NTA sensor chip surface for Surface Plasmon Resonance analysis of the binding of 531201.1066 as the analyte. Association and dissociation measurements were taken and the binding affinity of S31-201.1066 for Stat3 was determined using Qdat software.

Stat3 [2] = molecular target: T1, Stat3; set-up: Coding regions for the murine Stat3 protein; made in house; host or cells: E. coli BL21(DE3); conditions: cited from earlier work
Stat3 [3] = molecular target: T1, Stat3; set-up: endogenous in cells; host or cells: NIH3T3/v-Src mouse fibroblasts (nuclear extract); conditions: read-out: IC50, disruption of Stat3 DNA-binding activity in vitro; previously reported (22); cited from earlier work
Stat3 [4] = molecular target: T1, Stat3; test: Stat3 DNA-binding assay in vitro (EMSA, hSIE probe), nuclear extracts of NIH3T3/v-Src; format: biochemical; set-up: endogenous in cells; host or cells: NIH3T3/v-Src mouse fibroblasts (nuclear extract); conditions: 30 min pre-incubation at room temperature, read-out: IC50, inhibition of Stat3 DNA-binding activity in vitro
Experimental: Nuclear extract preparations and electrophoretic mobility shift assay (EMSA) were carried out as previously described (28,33). […] Except where indicated, nuclear extracts were pre-incubated with compound for 30 min at room temperature prior to incubation with the radiolabeled probe for 30 min at 30° C. before subjecting to EMSA analysis.

[5] = system: NIH3T3/v-Src, MDA-MB-231 and Panc-1 cells; conditions: previously reported (18); cited from earlier work

Compound: CC(C)C[C@H](NC(=O)[C@H](Cc1ccc(OP(=O)(O)O)cc1)NC(=O)CN)C(=O)N1CCC[C@H]1C(=O)N[C@@H](CCC(N)=O)C(=O)N[C@H](C(=O)N[C@H](C(N)=O)C(C)C)[C@@H](C)O [GpYLPQTV-NH2] (H-G[pY]LPQTV-NH2)
IC50 (Stat3 [1]; 150 nM Stat3, 10 nM probe, read-out: IC50, disruption of Stat3 binding to pTyr peptide probe): 0.3 µM | Kd (His-tagged Stat3): 0.024 µM | IC50 (Stat3 [2]; read-out: IC50, reported, reported (21)): 0.29 ± 0.063 µM | IC50 (Stat3 [2]; read-out: IC50 in FP assay, previously reported value, previously reported (23)): 0.25 ± 0.03 µM | Kd (Stat3 [2]; read-out: affinity for Stat3, reported, reported (23)): 0.15 ± 0.01 µM | IC50 (Stat3 [3]): 0.15 µM

IC50 (Stat3 [4]): 45 µM
Compound: Cc1ccc(S(=O)(=O)N(C)CC(=O)N(Cc2ccc(C3CCN(c4ccc(C#N)cc4)CC3)cc2)c2ccc(C(=O)O)c(O)c2)cc1 [S3I-201.2096]

Compound: Cc1ccc(S(=O)(=O)OCC(=O)Nc2ccc(C(=O)O)c(O)c2)cc1 [S3I-201]
concentration of antitumor cell activity previously reported for the lead agent [5]: 100 µM

effect on the fluorescent polarization signal (Stat3 [1]; data not shown): no evidence of effect | binding to Stat3 (SPR) (His-tagged Stat3; SPR, immobilized His-Stat3): little evidence of significant binding
Compound: GYLPQTV-NH2 [reference compound]
